How the values were obtained:
[1] = tested on: Human immunodeficiency virus 1; test: Antiviral activity against HIV-1 infected in MT4 cells assessed as reduction in virus-induced cytopathic effect preincubated for 1 hr followed by viral infection and measured after 5 days by XTT assay; type: functional, organism-based; conditions: Human immunodeficiency virus 1, MT4
[2] = Cytotoxicity against in human MT4 cells after 5 days by XTT assay; type: cell-based; conditions: time 5 day
Hepatitis B virus = test: Antiviral activity against HBV infected in human HepG2-hNTCP cells assessed as reduction in HBV DNA incubated for day 1 followed by compound washout and fresh compound addition on following day and day 3, 6 and 10 measured on day 14 post infection by qPCR analysis; type: functional, organism-based
[3] = Cytotoxicity against human HepG2-hNTCP cells incubated for 3 days by XTT assay; type: cell-based; conditions: time 3 day

Row | Structure (SMILES) | EC50 [1] | CC50 at 120 h [2] | EC50 (Hepatitis B virus) | CC50 at 72 h [3]
1 | CC(C)OC(=O)[C@H](C)NP(=O)(CO[C@H](C)Cn1cnc2c(N)ncnc21)Oc1ccc(C[C@H](NC(=O)OCc2ccccc2)C(=O)OC2CCCC2)cc1 (stereo not given in full) | 0.9 nM | 8300 nM | 0.7 nM | > 50000 nM
2 | CCCCCCOC(=O)[C@H](Cc1ccc(O[P@](=O)(CO[C@H](C)Cn2cnc3c(N)ncnc32)N[C@@H](C)C(=O)OC(C)C)cc1)NC(=O)OCc1ccccc1 | 23 nM | 17000 nM |  | 
3 | CCOC(=O)[C@H](Cc1ccc(OP(=O)(CO[C@H](C)Cn2cnc3c(N)ncnc32)N[C@@H](C)C(=O)OC(C)C)cc1)NC(=O)OCc1ccccc1 (stereo not given in full) | 17 nM | 11000 nM | 3.6 nM | > 50000 nM
4 | COC(=O)[C@H](Cc1ccc(O[P@](=O)(CO[C@H](C)Cn2cnc3c(N)ncnc32)N[C@@H](C)C(=O)OC(C)C)cc1)NC(=O)c1ccccc1 | 72 nM | > 50000 nM |  | 
5 | COC(=O)[C@H](Cc1ccc(O[P@](=O)(CO[C@H](C)Cn2cnc3c(N)ncnc32)N[C@@H](C)C(=O)OC(C)C)cc1)N(C)C | 2500 nM | > 50000 nM |  | 
6 | COC(=O)[C@H](Cc1ccc(O[P@@](=O)(CO[C@H](C)Cn2cnc3c(N)ncnc32)N[C@@H](C)C(=O)OC(C)C)cc1)NC(=O)C(F)(F)F | 150 nM | > 50000 nM | 0.27 nM | > 50000 nM
7 | COC(=O)[C@@H](N)Cc1ccc(O[P@@](=O)(CO[C@H](C)Cn2cnc3c(N)ncnc32)N[C@@H](C)C(=O)OC(C)C)cc1 | 350 nM | > 50000 nM |  | 
8 | CC(C)OC(=O)[C@H](C)NP(=O)(CO[C@H](C)Cn1cnc2c(N)ncnc21)Oc1ccc(C[C@H](NC(=O)OCc2ccccc2)C(=O)OC(C)(C)C)cc1 (stereo not given in full) | 13 nM | 6600 nM |  | 
9 | CC(C)OC(=O)[C@H](C)NP(=O)(CO[C@H](C)Cn1cnc2c(N)ncnc21)Oc1ccc(C[C@H](NC(=O)OCc2ccccc2)C(=O)OC(C)C)cc1 (stereo not given in full) | 1.6 nM | 9400 nM | 4.2 nM | > 50000 nM
10 | COC(=O)[C@H](Cc1ccc(O[P@@](=O)(CO[C@H](C)Cn2cnc3c(N)ncnc32)N[C@@H](C)C(=O)OC(C)C)cc1)N1CCCC1 | 16 nM | 27000 nM |  | 
11 | CC(C)OC(=O)[C@H](C)NP(=O)(CO[C@H](C)Cn1cnc2c(N)ncnc21)Oc1ccc(C[C@@H](C(=O)OC2CCCC2)N(CCCc2ccccc2)Cc2ccccc2)cc1 (stereo not given in full) |  |  | 1.2 nM | > 50000 nM
12 | COC(=O)[C@@H](N)Cc1ccc(O[P@](=O)(CO[C@H](C)Cn2cnc3c(N)ncnc32)N[C@@H](C)C(=O)OC(C)C)cc1 | 650 nM | > 50000 nM |  | 
13 | CCOC(=O)[C@H](Cc1ccc(O[P@](=O)(CO[C@H](C)Cn2cnc3c(N)ncnc32)N[C@@H](C)C(=O)OC(C)C)cc1)NC(=O)OCc1ccccc1 | 20 nM | 13000 nM |  | 
14 | CC(C)OC(=O)[C@H](C)N[P@@](=O)(CO[C@H](C)Cn1cnc2c(N)ncnc21)Oc1ccc(C[C@H](NC(=O)OCc2ccccc2)C(=O)OC2CCCCC2)cc1 | 21 nM | 14000 nM |  | 
15 | CC(C)OC(=O)[C@H](C)N[P@](=O)(CO[C@H](C)Cn1cnc2c(N)ncnc21)Oc1ccc(C[C@@H](NC(=O)OCc2ccccc2)C(=O)OC2CCCC2)cc1 | 0.67 nM | 20000 nM |  | 
16 | CC(C)OC(=O)[C@H](C)NP(=O)(CO[C@H](C)Cn1cnc2c(N)ncnc21)Oc1ccc(C[C@H](NC(=O)OCc2ccccc2)C(=O)OCc2ccccc2)cc1 (stereo not given in full) | 9 nM | 10000 nM |  | 
17 | CC(C)OC(=O)[C@H](C)NP(=O)(CO[C@H](C)Cn1cnc2c(N)ncnc21)Oc1ccc(C[C@H](NC(=O)OCc2ccccc2)C(=O)OCc2cccs2)cc1 (stereo not given in full) | 3.4 nM | 8200 nM |  | 
18 | CC(C)OC(=O)[C@H](C)N[P@](=O)(CO[C@H](C)Cn1cnc2c(N)ncnc21)Oc1ccc(C[C@H](NC(=O)OCc2ccccc2)C(=O)OC2CCCCC2)cc1 | 8.4 nM | 9100 nM |  | 

Row | Structure (SMILES) | EC50 [1] | CC50 at 120 h [2] | EC50 (Hepatitis B virus) | CC50 at 72 h [3]
19 | CCCCCCOC(=O)[C@H](Cc1ccc(O[P@@](=O)(CO[C@H](C)Cn2cnc3c(N)ncnc32)N[C@@H](C)C(=O)OC(C)C)cc1)NC(=O)OCc1ccccc1 | 16 nM | 13000 nM |  | 
20 | COC(=O)[C@H](Cc1ccc(O[P@](=O)(CO[C@H](C)Cn2cnc3c(N)ncnc32)N[C@@H](C)C(=O)OC(C)C)cc1)NC(C)=O | 2200 nM | > 50000 nM | 7.2 nM | > 50000 nM
21 | CCCCCCCCOC(=O)[C@H](Cc1ccc(OP(=O)(CO[C@H](C)Cn2cnc3c(N)ncnc32)N[C@@H](C)C(=O)OC(C)C)cc1)NC(=O)OCc1ccccc1 (stereo not given in full) | 38 nM | 27000 nM |  | 
22 | COCCOCCOCCOC(=O)[C@H](Cc1ccc(OP(=O)(CO[C@H](C)Cn2cnc3c(N)ncnc32)N[C@@H](C)C(=O)OC(C)C)cc1)NC(=O)OCc1ccccc1 (stereo not given in full) | 470 nM | > 50000 nM |  | 
23 | COC(=O)[C@H](Cc1ccc(O[P@@](=O)(CO[C@H](C)Cn2cnc3c(N)ncnc32)N[C@@H](C)C(=O)OC(C)C)cc1)N(C)C | 48 nM | 38000 nM |  | 
24 | COC(=O)[C@H](Cc1ccc(OP(=O)(CO[C@H](C)Cn2cnc3c(N)ncnc32)N[C@@H](C)C(=O)OC(C)C)cc1)NC(=O)OCc1ccccc1 (stereo not given in full) |  |  | 0.6 nM | 15000 nM
25 | CC(C)OC(=O)[C@H](C)N[P@@](=O)(CO[C@H](C)Cn1cnc2c(N)ncnc21)Oc1ccc(C[C@H](NC(=O)OCc2ccccc2)C(=O)OC(C)C)cc1 | 27 nM | 13000 nM |  | 
26 | CCC(CC)COC(=O)[C@H](Cc1ccc(O[P@@](=O)(CO[C@H](C)Cn2cnc3c(N)ncnc32)N[C@@H](C)C(=O)OC(C)C)cc1)NC(=O)OCc1ccccc1 | 50 nM | 38000 nM |  | 
27 | COC(=O)[C@H](Cc1ccc(O[P@@](=O)(CO[C@H](C)Cn2cnc3c(N)ncnc32)N[C@@H](C)C(=O)OC(C)C)cc1)NC(=O)OCc1ccccc1 | 16 nM | 16000 nM |  | 
28 | COC(=O)[C@H](Cc1ccc(O[P@@](=O)(CO[C@H](C)Cn2cnc3c(N)ncnc32)N[C@@H](C)C(=O)OC(C)C)cc1)NC(=O)c1ccccc1 | 84 nM | > 50000 nM |  | 
29 | CC(C)OC(=O)[C@H](C)NP(=O)(CO[C@H](C)Cn1cnc2c(N)ncnc21)Oc1ccc(C[C@@H](C(=O)CC2CCCC2)N(CCCc2ccccc2)Cc2ccccc2)cc1 (stereo not given in full) |  |  | 1.3 nM | 46000 nM
30 | COC(=O)[C@H](Cc1ccc(O[P@](=O)(CO[C@H](C)Cn2cnc3c(N)ncnc32)N[C@@H](C)C(=O)OC(C)C)cc1)NC(=O)OCc1ccccc1 | 30 nM | 8500 nM |  | 
31 | CCC(CC)COC(=O)[C@H](Cc1ccc(O[P@](=O)(CO[C@H](C)Cn2cnc3c(N)ncnc32)N[C@@H](C)C(=O)OC(C)C)cc1)NC(=O)OCc1ccccc1 | 36 nM | 38000 nM |  | 
32 | CC(C)OC(=O)[C@H](C)N[P@@](=O)(CO[C@H](C)Cn1cnc2c(N)ncnc21)Oc1ccc(C[C@H](NC(=O)OCc2ccccc2)C(=O)NC2CCCC2)cc1 | 10 nM | 17000 nM |  | 
33 | CC(C)CCOC(=O)[C@H](Cc1ccc(O[P@](=O)(CO[C@H](C)Cn2cnc3c(N)ncnc32)N[C@@H](C)C(=O)OC(C)C)cc1)NC(=O)OCc1ccccc1 | 11 nM | 24000 nM |  | 
34 | CCOC(=O)[C@H](Cc1ccc(O[P@@](=O)(CO[C@H](C)Cn2cnc3c(N)ncnc32)N[C@@H](C)C(=O)OC(C)C)cc1)NC(=O)OCc1ccccc1 | 3.3 nM | 11000 nM |  | 
35 | COC(=O)[C@H](Cc1ccc(O[P@](=O)(CO[C@H](C)Cn2cnc3c(N)ncnc32)N[C@@H](C)C(=O)OC(C)C)cc1)N1CCCC1 | 11 nM | 24000 nM |  | 

Source: ChEMBL document CHEMBL4840358, “Discovery of Modified Amidate (ProTide) Prodrugs of Tenofovir with Enhanced Antiviral Properties” (J Med Chem, 2021)
